From paper PMC10785772 (Science translational medicine, 2023)
In brackets after ≈: the same amount, converted by molar mass. Like-named read-outs stand apart in the source and are kept apart here.

Test system: E. coli strain NDM-1 (ATCC:BAA-2471)
Test: MIC against multidrug-resistant sepsis-model strain
Format: cell-based

Compound | MIC | MIC (Escherichia coli, BAA2471)
colistin | 2.5 µg/mL | 
O=C(O)c1cn(C2CC2)c2cc(N3CCNCC3)c(F)cc2c1=O [ciprofloxacin] |  | > 32 µg/mL
C[C@@H](O)[C@H]1C(=O)N2C(C(=O)O)=C(SCCN=CN)C[C@H]12 [imipenem] |  | 32 µg/mL (≈ 107 µM)
